Where “and” joins values, the source holds several entries; their conditions need not be identical. Equal entries are not always repeated. Structures can show the parent of a compound that is named as a salt.
Target: T1, human serotonin transporter (hSERT) (Homo sapiens, UniProt P31645)
T1 construct: expressed in transfected cells; host or cells: HEK-293 (stably transfected)
Test: inhibition of 3H-serotonin uptake in HEK-293 cells expressing hSERT
Type: cell-based
Conditions: HEK-293 cells with hSERT, 3H-5HT 50 nM, 5 min incubation; read-out: serotonin re-uptake inhibition (SRI) IC50
Experimental: A number of compounds were tested for biological activity by their ability to inhibit the uptake of serotonin by human serotonin transporters as follows.
Human embryonic kidney cells (HEK-293) stably transfected with either the human serotonin transporter (hSERT), noradrenaline transporter (hNET) or dopamine transporter (hDAT) were cultured under standard cell culture techniques (cells were grown at 37° C. and 5% CO2 in DMEM-culture media (supplemented with 10% dialysed foetal calf serum (FCS), 2 mM I-glutamine and 250 μg/ml geneticin)). Cells were harvested for the assay to yield a cell suspension of 750,000 cells/ml.
All test compounds were dissolved in 100% DMSO and diluted down in assay buffer to give appropriate test concentrations. Assays were carried out in 96-well filter bottom plates. Cells (7500 cells/assay well) were pre-incubated in standard assay buffer containing either test compound, standard inhibitor or compound vehicle (1% DMSO) for 5 minutes. Reactions were started by addition of either ^3H-Serotonin, ^3H-Noradrenaline or ^3H-Dopamine substrates. All reactions were carried out at room temperature in a shaking incubator. Incubation times were 5 minutes for the hSERT and hDAT assays and 15 minutes for the hNET assay. Reactions were terminated by removal of the reaction mixture using a vacuum manifold followed by rapid washing with ice cold assay buffer. The quantity of ^3H-substrate incorporated into the cells was then quantified.
Assay plates were dried in a microwave oven, scintillation fluid added, and radioactivity measured. Potency of test compounds was quantified as IC50 values (concentration of test compound required to inhibit the specific uptake of radiolabelled substrate into the cells by 50%).

T1 sequence (P31645 whole entry): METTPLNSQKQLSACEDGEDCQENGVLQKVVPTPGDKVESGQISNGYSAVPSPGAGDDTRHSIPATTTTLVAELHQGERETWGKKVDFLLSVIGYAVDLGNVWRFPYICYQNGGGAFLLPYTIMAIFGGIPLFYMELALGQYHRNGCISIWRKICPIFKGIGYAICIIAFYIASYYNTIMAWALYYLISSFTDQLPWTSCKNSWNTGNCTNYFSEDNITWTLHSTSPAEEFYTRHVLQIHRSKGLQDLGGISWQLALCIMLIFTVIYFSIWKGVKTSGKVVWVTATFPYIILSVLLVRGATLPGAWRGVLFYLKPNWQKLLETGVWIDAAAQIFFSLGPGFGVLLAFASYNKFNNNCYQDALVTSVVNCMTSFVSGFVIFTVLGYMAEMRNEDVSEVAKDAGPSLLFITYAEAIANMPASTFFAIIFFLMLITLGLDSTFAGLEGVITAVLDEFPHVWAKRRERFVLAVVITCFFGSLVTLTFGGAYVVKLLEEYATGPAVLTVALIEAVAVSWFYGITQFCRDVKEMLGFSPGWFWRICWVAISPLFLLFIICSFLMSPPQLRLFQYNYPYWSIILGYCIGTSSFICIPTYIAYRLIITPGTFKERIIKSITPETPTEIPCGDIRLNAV

Question: For `CS(=O)(=O)Nc1ccc(Oc2ccc(OC(F)(F)F)cc2)c(C2CCCN2)c1` (single isomer, unassigned; (+)) [Example 22, (+) N-{3-(2-pyrrolidinyl)-4-[4-(trifluoromethoxy)phenoxy]phenyl}-methanesulfonamide], which IC50 is on record?
Answer: Its IC50 is no more than 50 nM.

Question: For `CSc1ccc(Oc2ccc(S(N)(=O)=O)cc2C2CCCN2)cc1` (single isomer, unassigned; (+)) [Example 7, (+)4-[4-(Methylsulfanyl)phenoxy]-3-(2-pyrrolidinyl)benzenesulfonamide hydrochloride], which IC50 is on record?
Answer: The IC50 was ≤ 100 nM and ≤ 50 nM and 5.4 nM.

Question: With `CNS(=O)(=O)c1ccc(Oc2ccc(SC)cc2)c(C2CCCN2)c1` (single isomer, unassigned) [Example 11, N-methyl-4-[4-(methylsulfanyl)phenoxy]-3-(2-pyrrolidinyl)benzenesulfonamide] as the compound, how does the IC50 read?
Answer: The IC50 was ≤ 100 nM and ≤ 50 nM and 5.9 nM.

Question: How did the IC50 turn out when `CS(=O)(=O)Nc1ccc(Oc2ccc(OC(F)(F)F)cc2)c(C2CCCN2)c1` (single isomer, unassigned) [Example 21] was run?
Answer: The IC50 was 13 nM.

Source: patent US6630504B2, “Phenoxyphenylheterocyclyl derivatives as SSRIs” (Pfizer Inc., priority 2000, dated 2003)
